Test results taken from patent publication EP4696689A1, “SALT FORM AND CRYSTAL FORM OF CHIRAL HETEROCYCLIC COMPOUND HAVING HEDGEHOG PATHWAY ANTAGONIST ACTIVITY” (Suzhou Kintor Pharmaceuticals, Inc., priority 2023, dated 2024).

How the values were obtained:
[1] = rats, P.O., 10 mg/kg; data from WO2018006756A1 (B1); cited from earlier work
[2] = solid state stability (XRPD, HPLC, chiral purity); type: physicochemical
Method: The purity test, the dynamic solubility and the stability test are tested by the Agilent 1260/1100 high performance liquid chromatograph, and the analysis conditions and chiral purity test analysis conditions of the high performance liquid chromatography test are respectively as follows.
After placing the amorphous free base and fumarate crystal form F of the compound of formula (I) at 25°C/60% RH and 40°C/75% RH for 1 week, the physical and chemical stability of the sample is detected by XRPD and HPLC (at the same time the chiral purity of the sample is tested). […] Table 4-2 Solid Stability Evaluation Summary

[3] = dynamic solubility in water and three biological solvents; type: physicochemical; conditions: 37 °C, thermodynamic from solid
Method: Finally, the volume is fixed with purified water.
(§1) 0.17 g of sodium dihydrogen phosphate (NaH2PO4, anhydrous), 0.021 g of sodium hydroxide and 0.31 g of sodium chloride were weighed into a 50 mL volumetric flask respectively, about 48 mL of purified water was added for dissolution, the pH was adjusted to exactly 6.5 with 1M hydrochloric acid or 1M sodium hydroxide, and the volume was fixed with purified water. 0.11 g of SIF powder was then added, stirred and sonicated to completely dissolve the powder. The solution can be used only after being placed at room temperature for two hours to reach equilibrium.
as §1, with “0.41 mL” for “0.17 g”, “glacial acetic acid, 0.20” for “sodium dihydrogen phosphate (NaH2PO4, anhydrous), 0.021”, “0.59” for “0.31”, “respectively, and” for “respectively,”, “5.0” for “6.5”, “0.56” for “0.11”
The solubility results of the two samples in SGF, FASSIT and FeSSIF are similar. […] Table 4-1 Summary of the dynamic solubility test results

[4] = hygroscopicity evaluation by dynamic vapor sorption (DVS); type: physicochemical
Method: The DVS curves were collected on a DVS Intrinsic from SMS (Surface Measurement Systems).The relative humidity at 25°C was corrected with the deliquescence points of LiCl, Mg (NO3)2 and KCl.

[5] = test system: primary extracted medulloblastoma cells; assay: antitumor efficacy against medulloblastoma, subcutaneous xenograft model;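 also: male CB-17/SCID mice bearing subcutaneous tumors, randomized at 150-300 mm^3, tumor volume from caliper diameters as 0.5 × longest × shortest squared, measured twice weekly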; type: in vivo, CB-17/SCID mice; conditions: 10 mg/kg i.g. BID, 17 days
Method: 60 male CB-17/SCID mice (aged 6-8 weeks) were purchased from Shanghai SLAC Laboratory Animal Co., Ltd. Animals were housed in individually ventilated cages (IVCs), with five mice per cage. Housing conditions were as follows: temperature was maintained at 20-26°C; humidity was 30-70%; 12 hours of light and 12 hours of darkness.
(§2) 30 mice with uniform tumor sizes (Coefficient of Variation, CV < 30%, CV = Standard Deviation / Mean) were selected from this group. These mice were selected and randomly divided into five experimental groups according to Table 6-2, with six mice in each group and one group per cage. Drug administration began the day after grouping and lasted for 17 days with a frequency of twice daily (BID). The drug was discontinued after 17 days to observe tumor changes.
(§3) During routine examinations, animals were monitored for tumor growth, activity level, food intake, water consumption, weight gain or loss, eye, fur, and any other abnormal behaviors. Animal deaths and clinical abnormalities were recorded. Tumor volume (TV) was measured twice weekly using calipers and calculated using the formula: TV = 0.5a × b^2, wherein a is the longest diameter of the tumor and b is the shortest diameter. Body weight was recorded twice weekly, concurrently with tumor volume measurements.
(§4) If the animals' weight subsequently recovered to within a 10% loss compared to baseline, whether to continue the administration was based on the animals' condition. The in vivo experimental for an individual animal or the entire group would be terminated under the following conditions. The animals will be euthanized before death or coma. • ➢ If the animals' health condition deteriorated continuously, causing persistent suffering and is unable to eat or drink. • ➢ If the animal became emaciated, with a body weight loss exceeding 20% compared to the initial administration. • ➢ If the tumor volume of an individual mouse exceeded 3000 mm^3 or the mean tumor volume of the entire group exceeded 2000 mm^3.
All data were analyzed using GraphPad Prism 5.0. P value < 0.05 was considered statistically significant.

[6] = SCID tumor-bearing mice, i.g. BID × 3 days
Method: During routine examinations, animals were monitored for tumor growth, activity level, food intake, water consumption, weight gain or loss, eye, fur, and any other abnormal behaviors. Animal deaths and clinical abnormalities were recorded.

[7] = body weight of tumor-bearing mice during treatment
Excerpt: as §2, §3, §4

[8] = test system: Gli1 Gene; assay: Gli1 mRNA expression in tumor tissues (RT-qPCR), Shh signaling pathway analysis; type: in vivo, CB-17/SCID mice; conditions: 10 mg/kg i.g. BID × 3 days; tumor tissue 2 hours after last administration; GAPDH internal reference
Excerpt: Table 7-1 The Grouping and Drug Administration Plan
Primary tumor cells were extracted from Math1-Cre/Ptch1 ^C/C mice with spontaneous medulloblastoma and subcutaneously inoculated into CB-17/SCID mice to establish a xenograft model of medulloblastoma.
CB-17/SCID mice were subcutaneously injected with primary extracted medulloblastoma cells. After 3-4 weeks, a subset of mice developed tumors with volumes ranging from 150 to 300 mm^3.
From these mice, 25 tumor-bearing mice with uniform tumor sizes (with CV < 30%, CV = SD/Mean) were selected and randomly divided into 5 experimental groups (Vehicle, GDC-0449-10 mg/kg, Compound A-10 mg/kg, Compound A-3 mg/kg, Compound A-1 mg/kg) according to Table 2. Each group consisted of 5 mice per cage. Administration began on the day after grouping. The administration period was 3 days, with a frequency of BID. Tumor tissues were collected 2 hours after the last administration, and the mRNA expression level of the Glil gene in the tumor tissues was analyzed by RT-qPCR.
The tumor tissues were lysed by RNAiso Plius (TaKaRa, 108-95-2) to extractand RNA was then extracted using chloroform extraction and isopropanol precipitation methods. Subsequently, the mRNA level of the Glil gene was detected using a real-time fluorescence quantitative PCR instrument (ABI 7500), with GAPDH serving as the internal reference for quantitative analysis.
Experimental data in all tables are presented as "mean ± standard deviation" with error bars in figures representing standard error of the mean (SEM). Student's t-test was used to compare statistical differences in Glil gene mRNA expression levels in tumor tissues among treatment groups. All data were analyzed using GraphPad Prism 5.0. P-value <0.05 was considered statistically significant. ***, P<0.001; ##, P<0.01.
Glil is a target gene of the Hedgehog signaling pathway, and its mRNA expression level reflects the activation status of the hedgehog signaling pathway.

[9] = in vivo; conditions: male, C57, mouse, plasma, po, 10 mg/kg
Method: The collected plasma samples were subjected to a protein precipitation method by using an organic reagent according to the following method to extract test article in the plasma, and the extracted sample was subjected to quantitative concentration analysis through the LC-MS/MS.
Meanwhile, an accompanying standard curve and quality control samples were prepared for quantitative analysis.
The fumarate salt form F of the compound of formula (I) Group: 50 µL of plasma at each time point was taken, 400 µL of acetonitrile was added, vortex mixing and centrifugation was performed at 10000 rpm for 10 min, and a 200 µL supernatant for LC-MS/MS analysis was taken. Meanwhile, an accompanying standard curve and quality control samples were prepared for quantitative analysis.
According to the plasma drug concentration data obtained through analysis, the main pharmacokinetic parameters were calculated according to the non-atrioventricular model by using Kinetic software (Version 5.0).

[10] = pH 1.8, simulated gastric fluid

SMILES: Cc1cnc(-c2cc(N3CCc4nc(N5CCC(O)CC5)ncc4[C@H]3C)ncc2Cl)c(C)c1 [compound of formula (I), (R)-1-(6-(5'-chloro-3,5-dimethyl-[2,4'-bipyridin]-2'-yl)-5-methyl-5,6,7,8-tetrahydropyrido[4,3-d]pyrimidin-2-yl)piperidin-4-ol]
- F% [1]: 100%
- Chiral purity (%) ([2]; 25°C/60%RH_1w): 98.7%
- Purity (Area%) ([2]; 25°C/60%RH_1w): 99.0 Area%
- Purity/Initial purity (%) ([2]; 25°C/60%RH_1w): 100.0%
- Chiral purity (%) ([2]; 40°C/75%RH_1w): 98.7%
- Purity (Area%) ([2]; 40°C/75%RH_1w): 98.9 Area%
- Purity/Initial purity (%) ([2]; 40°C/75%RH_1w): 99.9%
- Chiral purity (%) ([2]; Start): 98.5%
- Purity (Area%) ([2]; Start): 99.0 Area%
- Solid State Stability ([2]; summary, 25°C/60% RH and 40°C/75% RH for 1 week): good physical and chemical stability
- solubility at 1 h [3, 10]: 4100 µg/mL
- solubility at 2 h [3, 10]: 3900 µg/mL
- solubility at 4 h [3, 10]: 4000 µg/mL
- solubility at 24 h [3, 10]: 3900 µg/mL
- solubility at 1 h ([3]; pH 5, fessif): 3000 µg/mL
- solubility at 2 h ([3]; pH 5, fessif): 3000 µg/mL
- solubility at 4 h ([3]; pH 5, fessif): 2900 µg/mL
- solubility at 24 h ([3]; pH 5, fessif): 2900 µg/mL
- solubility at 1 h ([3]; pH 6.5, fassif): 210 µg/mL
- solubility at 2 h ([3]; pH 6.5, fassif): 200 µg/mL
- solubility at 4 h ([3]; pH 6.5, fassif): 240 µg/mL
- solubility at 24 h ([3]; pH 6.5, fassif): 220 µg/mL
- solubility at 1 h ([3]; water): 13 µg/mL
- solubility at 2 h ([3]; water): 16 µg/mL
- solubility at 4 h ([3]; water): 18 µg/mL
- solubility at 24 h ([3]; water): 30 µg/mL
- crystal transformation or crystal form change after the DVS test (XRPD) ([4]; 0% RH-95% RH-0% RH, 25°C): no crystal transformation or crystal form change
- Water adsorption (25°C/80%RH) ([4]; 25°C/80%RH): 2.4
- moisture adsorption ([4]; 25°C/80%RH): 2.4%

SMILES: CS(=O)(=O)c1ccc(C(=O)Nc2ccc(Cl)c(-c3ccccn3)c2)c(Cl)c1 [GDC-0449, reference compound]
- T/C (%) [5]: 32.49%
- TGI (%) ([5]; TGI = [1 - RTV(treatment group) / RTV(control group)] × 100%): 67.51%
- abnormal behaviors or animal deaths during the administration period [6]: no abnormal behaviors or animal deaths
- Mean Body Weight at Day 0 ([7]; 10 mg/kg group, before treatment): 23.7 ± 2.1 g
- Body Weight Change Rate (%) ([7]; 10 mg/kg i.g. BID, 17 days): 9.3%
- Mean Body Weight at Dosing Endpoint ([7]; 10 mg/kg i.g. BID, 17 days): 25.9 ± 2.0 g
- impact on the body weight of tumor-bearing mice during the treatment period ([7]; administered doses, i.g. BID × 17 days): no significant impact
- mRNA Expression Level of Glil Gene [8]: 0.194 ± 0.074
- AUC(0-inf) [9]: 6650 ng·h/mL
- AUC(0-t) [9]: 6040 ng·h/mL
- Cmax [9]: 1270 ng/mL
- MRT [9]: 8.33 h
- Tmax [9]: 37.8 min
- half-life [9]: 506 min
